According to patent US20220280543A1, “DDX17 AND NLRC4 TARGETING FOR INFLAMMATORY DISEASES” (University of Virginia Patent Foundation, priority 2019, published 2022):

Test system: RPE degeneration
Experiment: Alu RNA induced RPE degeneration in mice, fundus images and ZO-1 staining
Type: in vivo
Conditions: subretinal, WT mice (FIG. 26)
Protocol: FIGS. 25A and 25B. NLRC4 knockdown blocks Alu RNA (SEQ ID NO: 86) induced ASC oligomerization and RPE degeneration. Human RPE cell treated with siRNA target on NLRC4 (SMARTPOOL siRNA for NLRC4: CAACUGGGCUCCUCUGUAA; SEQ ID NO: 93) and NAIP (SMARTPOOL siRNA for NAIP: GUAAAGAGCUAUAUGGAUA; SEQ ID NO: 94), 24 hours later, treated with Alu RNA (SEQ ID NO: 86 at 100 pmol) FIG. 25A. […] The band of ASC oligomers was indicated by black arrow. […] The hyperdense areas due to the RPE degeneration in fundus images and ZO-1 disorganizations in RPE sheet are indicated by white arrows.
FIG. 26. […] Wilde type of C57/B6 mice were intravitreally injected with siRNA target on Ddx17 (siRNA for Ddx17: GGCUAGAUGUGGAAGAUGU; SEQ ID NO: 95), and two days later, Nlrc4^−/−, Naip1-6^−/−, mice and Ddx17 knockdown mice were subretinally injected with Alu RNA (SEQ ID NO: 86). […] The hyperdense areas due to the RPE degeneration in fundus images and ZO-1 disorganizations in RPE sheet are indicated by white arrows.
Next, we asked whether Alu RNA (SEQ ID NO: 86) also triggered NLRC4 inflammasome activation in human RPE cells. We performed immunofluorescence staining experiments to examine whether Alu RNA (SEQ ID NO: 86) can induce NLRC4 speck formation in human RPE cells. We noticed punctate structures resembling specks of NLRC4 in human RPE cells in response to Alu RNA (SEQ ID NO: 86) treatment (FIG. 24A). […] We further investigated downstream events of NLRC4 inflammasome activation by studying NLRC4-induced ASC oligomerization, a critical step involved in caspase-1 cleavage. NLRC4 siRNA, when co-administered with Alu RNA (SEQ ID NO: 86), blocked ASC oligomerization in vitro (FIG. 25A) and RPE degeneration in vivo (FIG. 25B).
We delivered Alu RNA (SEQ ID NO: 86) or Alu RNA (SEQ ID NO: 86)+siDDX17 subretinally in WT or NLRC4 KO or NAIP1-6 KO mice and examined for RPE degeneration using fundus photos and ZO-1 staining as described previously.

## Alu RNA: human SINE RNA, SEQ ID NO: 86
  RPE degeneration induced by Alu RNA: induced RPE degeneration
